The source made the active and inactive calls. The rule behind the calls is not given here.
What was measured:
[1] = target: Serine/threonine-protein kinase PAK 1 (Homo sapiens) (UniProt Q13153); test: Binding affinity to recombinant PAK1 (unknown origin) assessed as stabilization by measuring change in melting temperature at 10 uM by SYPRO orange dye based differential scanning fluorimetry assay
[2] = target: T1, Serine/threonine-protein kinase 3 (Homo sapiens) (UniProt Q13188); test: Binding affinity to recombinant MST2 (unknown origin) assessed as stabilization by measuring change in melting temperature at 10 uM by SYPRO orange dye based differential scanning fluorimetry assay
T1 sequence (whole entry): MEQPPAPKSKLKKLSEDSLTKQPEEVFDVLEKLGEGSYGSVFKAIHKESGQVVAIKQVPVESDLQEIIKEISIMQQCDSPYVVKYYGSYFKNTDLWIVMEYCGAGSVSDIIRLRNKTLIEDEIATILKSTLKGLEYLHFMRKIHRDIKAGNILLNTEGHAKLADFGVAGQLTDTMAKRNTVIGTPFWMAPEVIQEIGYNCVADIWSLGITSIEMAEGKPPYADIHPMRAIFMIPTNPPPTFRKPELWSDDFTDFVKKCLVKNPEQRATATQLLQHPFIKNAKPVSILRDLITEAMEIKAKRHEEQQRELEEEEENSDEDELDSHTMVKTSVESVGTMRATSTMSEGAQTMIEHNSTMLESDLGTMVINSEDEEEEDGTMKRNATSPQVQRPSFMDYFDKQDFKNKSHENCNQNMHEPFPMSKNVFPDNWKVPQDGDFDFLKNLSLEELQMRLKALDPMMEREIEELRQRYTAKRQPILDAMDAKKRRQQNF

[3] = target: Serine/threonine-protein kinase 24 (Homo sapiens) (UniProt Q9Y6E0); test: Binding affinity to recombinant MST3 (unknown origin) assessed as stabilization by measuring change in melting temperature at 10 uM by SYPRO orange dye based differential scanning fluorimetry assay
Sequence of Serine/threonine-protein kinase 24 (Homo sapiens) (Q9Y6E0 whole entry, looked up): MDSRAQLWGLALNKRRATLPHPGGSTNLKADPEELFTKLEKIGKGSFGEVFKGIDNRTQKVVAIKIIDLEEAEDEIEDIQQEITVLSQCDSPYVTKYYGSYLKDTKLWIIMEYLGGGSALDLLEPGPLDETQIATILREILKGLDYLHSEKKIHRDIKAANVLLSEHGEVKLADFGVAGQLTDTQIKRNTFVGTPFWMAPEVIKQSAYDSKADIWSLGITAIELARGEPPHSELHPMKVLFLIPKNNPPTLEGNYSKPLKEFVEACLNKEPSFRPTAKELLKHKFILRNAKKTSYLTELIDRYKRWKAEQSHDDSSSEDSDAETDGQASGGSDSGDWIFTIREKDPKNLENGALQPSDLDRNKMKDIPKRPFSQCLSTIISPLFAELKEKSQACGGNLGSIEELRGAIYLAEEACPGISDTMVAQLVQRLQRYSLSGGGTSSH

[4] = target: Serine/threonine-protein kinase 26 (Homo sapiens) (UniProt Q9P289); test: Binding affinity to recombinant MST4 (unknown origin) assessed as stabilization by measuring change in melting temperature at 10 uM by SYPRO orange dye based differential scanning fluorimetry assay
Sequence of Serine/threonine-protein kinase 26 (Homo sapiens) (Q9P289 2-416 limits assumed): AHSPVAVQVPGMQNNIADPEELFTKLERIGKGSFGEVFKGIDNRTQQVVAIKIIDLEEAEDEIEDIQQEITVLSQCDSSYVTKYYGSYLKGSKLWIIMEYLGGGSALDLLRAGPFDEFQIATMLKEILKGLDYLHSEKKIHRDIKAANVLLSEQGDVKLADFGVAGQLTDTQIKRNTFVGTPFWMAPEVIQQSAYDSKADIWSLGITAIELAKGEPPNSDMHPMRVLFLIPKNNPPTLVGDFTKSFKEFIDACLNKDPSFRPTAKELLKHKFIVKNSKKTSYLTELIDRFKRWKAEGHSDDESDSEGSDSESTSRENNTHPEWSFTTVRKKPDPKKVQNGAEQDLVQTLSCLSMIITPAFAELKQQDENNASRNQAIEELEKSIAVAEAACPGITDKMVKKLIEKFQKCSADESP

[5] = target: T2, Serine/threonine-protein kinase 4 (Homo sapiens) (UniProt Q13043); test: Binding affinity to recombinant MST1 (unknown origin) assessed as stabilization by measuring change in melting temperature at 10 uM by SYPRO orange dye based differential scanning fluorimetry assay
T2 sequence (whole entry): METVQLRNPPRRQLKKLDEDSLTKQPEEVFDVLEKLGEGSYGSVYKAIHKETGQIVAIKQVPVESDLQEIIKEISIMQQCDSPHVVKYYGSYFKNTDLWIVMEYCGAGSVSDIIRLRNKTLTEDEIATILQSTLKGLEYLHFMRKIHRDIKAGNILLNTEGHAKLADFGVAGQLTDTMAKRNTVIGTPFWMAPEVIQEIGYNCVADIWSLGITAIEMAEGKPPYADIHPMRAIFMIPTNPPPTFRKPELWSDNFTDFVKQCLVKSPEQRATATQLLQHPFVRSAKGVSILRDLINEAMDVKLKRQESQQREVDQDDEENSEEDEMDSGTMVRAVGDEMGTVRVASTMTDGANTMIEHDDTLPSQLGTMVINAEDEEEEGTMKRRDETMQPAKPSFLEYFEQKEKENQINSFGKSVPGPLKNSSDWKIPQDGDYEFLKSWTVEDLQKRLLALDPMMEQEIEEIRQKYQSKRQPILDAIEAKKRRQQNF

[6] = target: Serine/threonine-protein kinase SIK1 (Homo sapiens, UniProt P57059); test: Inhibition of full length NanoLuc fused SIK1 (unknown origin) transfected in HEK293T cells using NanoBRET NanoGlo substrate incubated for 2 hrs in presence of tracer by NanoBRET assay; format: cell-based
Sequence of Serine/threonine-protein kinase SIK1 (P57059 whole entry, the tested form may be a part): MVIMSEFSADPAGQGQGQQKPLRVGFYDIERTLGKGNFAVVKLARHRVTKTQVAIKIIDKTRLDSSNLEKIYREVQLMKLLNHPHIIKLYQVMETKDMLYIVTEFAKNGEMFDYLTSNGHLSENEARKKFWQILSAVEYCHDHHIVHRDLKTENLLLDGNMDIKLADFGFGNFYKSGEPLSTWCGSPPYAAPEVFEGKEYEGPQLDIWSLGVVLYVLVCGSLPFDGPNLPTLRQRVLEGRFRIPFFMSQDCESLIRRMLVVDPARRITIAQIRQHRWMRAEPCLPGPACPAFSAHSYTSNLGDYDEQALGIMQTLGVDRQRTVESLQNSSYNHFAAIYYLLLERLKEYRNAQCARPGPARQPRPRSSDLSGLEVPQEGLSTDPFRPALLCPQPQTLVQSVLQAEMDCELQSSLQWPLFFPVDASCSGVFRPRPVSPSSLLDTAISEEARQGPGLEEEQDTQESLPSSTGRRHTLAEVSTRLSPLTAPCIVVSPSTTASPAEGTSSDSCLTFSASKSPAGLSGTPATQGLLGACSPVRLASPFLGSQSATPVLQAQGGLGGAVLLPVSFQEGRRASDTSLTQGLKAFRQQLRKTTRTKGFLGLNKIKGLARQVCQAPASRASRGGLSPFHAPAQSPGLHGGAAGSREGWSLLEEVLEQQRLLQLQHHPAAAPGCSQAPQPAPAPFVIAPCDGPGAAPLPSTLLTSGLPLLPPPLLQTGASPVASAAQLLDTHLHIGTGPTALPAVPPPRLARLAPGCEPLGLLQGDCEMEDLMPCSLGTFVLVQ

[7] = system: SK-OV-3; test: Induction of cell cycle arrest in human SK-OV-3 cells assessed as accumulation of cells at G1 phase at 5 uM incubated for 24 hrs by flow cytometry (reference value: 34%); format: functional
[8] = system: SK-OV-3; test: Induction of cell cycle arrest in human SK-OV-3 cells assessed as accumulation of cells at S phase at 5 uM incubated for 24 hrs by flow cytometry (reference value: 32%); format: functional
[9] = system: HCT-116; test: Cytotoxicity against human HCT-116 cells assessed as decrease in cell viability at 10 uM incubated for 24 hrs by Hoechst-33342 staining high-content imaging analysis; format: toxicity, cell-based; conditions: hct-116, 24 h
[10] = target: Serine/threonine-protein kinase SIK2 (Homo sapiens) (UniProt Q9H0K1); test: Inhibition of SIK2 in human SK-OV-3 cells assessed as downregulation of AKT phosphorylation at Ser473 at 5 uM incubated for 48 hrs by Western blotting analysis; format: cell-based
Sequence of Serine/threonine-protein kinase SIK2 (Homo sapiens) (Q9H0K1 whole entry, looked up): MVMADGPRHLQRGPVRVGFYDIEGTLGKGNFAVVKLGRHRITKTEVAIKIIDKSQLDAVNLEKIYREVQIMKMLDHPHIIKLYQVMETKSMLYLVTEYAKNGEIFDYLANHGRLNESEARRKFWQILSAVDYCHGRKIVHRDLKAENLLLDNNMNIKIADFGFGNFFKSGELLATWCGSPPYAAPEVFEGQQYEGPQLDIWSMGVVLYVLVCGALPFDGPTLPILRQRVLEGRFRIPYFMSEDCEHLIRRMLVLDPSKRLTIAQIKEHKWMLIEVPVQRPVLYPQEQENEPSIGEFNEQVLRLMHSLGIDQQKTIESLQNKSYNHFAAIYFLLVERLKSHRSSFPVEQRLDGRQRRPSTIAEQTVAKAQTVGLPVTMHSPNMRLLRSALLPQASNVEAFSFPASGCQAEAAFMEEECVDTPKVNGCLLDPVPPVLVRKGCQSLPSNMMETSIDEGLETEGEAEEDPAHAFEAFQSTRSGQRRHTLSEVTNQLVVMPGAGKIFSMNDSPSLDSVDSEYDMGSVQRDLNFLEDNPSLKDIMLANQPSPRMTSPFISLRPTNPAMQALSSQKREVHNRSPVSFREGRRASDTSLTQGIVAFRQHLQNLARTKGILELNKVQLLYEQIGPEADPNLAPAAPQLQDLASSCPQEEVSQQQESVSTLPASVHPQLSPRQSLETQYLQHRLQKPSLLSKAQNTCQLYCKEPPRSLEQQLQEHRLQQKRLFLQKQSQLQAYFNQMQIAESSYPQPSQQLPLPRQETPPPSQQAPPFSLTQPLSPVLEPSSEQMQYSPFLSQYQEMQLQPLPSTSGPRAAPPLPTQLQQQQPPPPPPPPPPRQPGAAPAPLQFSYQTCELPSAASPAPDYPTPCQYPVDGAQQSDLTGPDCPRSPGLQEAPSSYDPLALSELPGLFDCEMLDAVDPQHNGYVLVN

[11] = target: Serine/threonine-protein kinase SIK2 (Homo sapiens) (UniProt Q9H0K1); test: Inhibition of SIK2 in human SK-OV-3 cells assessed as decrease in centrosome dissociation in G2 phase at 5 uM incubated for 48 hrs by immunofluorescence assay; format: cell-based
[12] = target: Serine/threonine-protein kinase SIK2 (Homo sapiens) (UniProt Q9H0K1); test: Inhibition of recombinant human GST-tagged SIK2 assessed as downregulation of SIK2 phosphorylation at Ser358 incubated for 30 mins by Western blotting analysis
[13] = system: HCT-116; test: Cytotoxicity against human HCT-116 cells assessed as effect on cell viability at 1 uM incubated for 80 hrs by Hoechst-33342 staining high-content imaging analysis; format: toxicity, cell-based; conditions: hct-116, 80 h
[14] = system: SK-OV-3; test: Induction of cell cycle arrest in human SK-OV-3 cells assessed as accumulation of cells at G2 phase at 5 uM incubated for 24 hrs by flow cytometry (reference value: 24%); format: functional
[15] = target: Serine/threonine-protein kinase SIK2 (Homo sapiens) (UniProt Q9H0K1); test: Inhibition of recombinant human GST-tagged SIK2 assessed as downregulation of SIK2 phosphorylation at Ser358 a 5 uM incubated for 30 mins by Western blotting analysis
[16] = target: Mitogen-activated protein kinase kinase kinase 20 (Homo sapiens, UniProt Q9NYL2); test: Inhibition of full-length human ZAK using MBP as substrate in presence off ATP by competitive binding assay
Sequence of Mitogen-activated protein kinase kinase kinase 20 (Q9NYL2 whole entry): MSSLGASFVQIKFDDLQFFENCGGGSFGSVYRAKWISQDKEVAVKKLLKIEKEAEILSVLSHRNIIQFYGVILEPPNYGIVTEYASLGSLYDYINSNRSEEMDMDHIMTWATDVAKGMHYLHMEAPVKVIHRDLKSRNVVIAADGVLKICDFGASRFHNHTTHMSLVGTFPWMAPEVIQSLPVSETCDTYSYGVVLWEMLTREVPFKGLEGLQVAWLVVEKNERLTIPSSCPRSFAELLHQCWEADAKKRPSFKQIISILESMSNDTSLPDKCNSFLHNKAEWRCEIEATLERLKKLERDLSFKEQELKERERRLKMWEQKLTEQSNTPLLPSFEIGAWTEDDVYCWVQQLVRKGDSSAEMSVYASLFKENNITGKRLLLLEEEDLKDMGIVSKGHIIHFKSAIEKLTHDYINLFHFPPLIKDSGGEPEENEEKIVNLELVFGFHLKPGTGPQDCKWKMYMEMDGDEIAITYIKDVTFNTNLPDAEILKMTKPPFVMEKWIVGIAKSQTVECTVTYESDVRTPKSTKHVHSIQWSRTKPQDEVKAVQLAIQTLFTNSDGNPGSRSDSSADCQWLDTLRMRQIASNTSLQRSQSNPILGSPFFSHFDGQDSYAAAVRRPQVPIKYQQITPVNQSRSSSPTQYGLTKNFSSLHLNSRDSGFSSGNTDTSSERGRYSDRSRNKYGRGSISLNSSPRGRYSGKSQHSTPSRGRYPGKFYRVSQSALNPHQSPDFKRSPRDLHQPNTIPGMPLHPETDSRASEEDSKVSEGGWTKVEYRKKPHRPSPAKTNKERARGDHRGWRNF

[17] = system: HCT-116; test: Cytotoxicity against human HCT-116 cells assessed as reduction in cell count at 1 uM incubated for >60 hrs by Hoechst-33342 staining high-content imaging analysis; format: toxicity, cell-based; conditions: hct-116, 60 h

Sequence of Serine/threonine-protein kinase PAK 1 (Homo sapiens) (Q13153 whole entry): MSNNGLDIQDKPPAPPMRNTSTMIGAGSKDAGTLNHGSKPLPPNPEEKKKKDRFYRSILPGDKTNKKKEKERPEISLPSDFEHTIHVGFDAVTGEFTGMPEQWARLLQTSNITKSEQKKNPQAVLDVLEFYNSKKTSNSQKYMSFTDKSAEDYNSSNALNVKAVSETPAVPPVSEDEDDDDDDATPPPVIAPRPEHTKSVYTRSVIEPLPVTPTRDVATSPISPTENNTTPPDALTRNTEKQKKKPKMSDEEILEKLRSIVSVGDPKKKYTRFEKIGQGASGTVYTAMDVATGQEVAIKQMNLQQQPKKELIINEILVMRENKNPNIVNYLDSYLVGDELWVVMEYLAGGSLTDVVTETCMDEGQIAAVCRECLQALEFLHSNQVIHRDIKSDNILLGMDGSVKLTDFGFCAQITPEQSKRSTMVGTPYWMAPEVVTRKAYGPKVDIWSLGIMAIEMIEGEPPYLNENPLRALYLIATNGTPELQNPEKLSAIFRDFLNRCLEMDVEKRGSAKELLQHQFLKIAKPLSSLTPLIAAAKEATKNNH

Row | ΔTm [1] | ΔTm [2] | ΔTm [3] | ΔTm [4] | ΔTm [5] | Compound | further results
1 | 0.6 °C | 1.5 °C | 0.8 °C | 0.6 °C | 1.7 °C | CNc1ncc2cc(-c3cc(Br)ccc3Cl)c(=O)n(C[C@H]3OC[C@H](N)CO3)c2n1 | 
2 |  |  | 8.5 °C |  | 4.2 °C | CNc1ncc2cc(-c3ccc(-c4cccc(C)n4)cc3Cl)c(=O)n(C[C@H]3OC[C@H](N)CO3)c2n1 | IC50 [6]: 33 nM
3 | 0 °C | 2.5 °C | 2.7 °C | 2.2 °C | 1.9 °C | CNc1ncc2cc(-c3cc(Br)ccc3Cl)c(=O)n(CCCCN)c2n1 | 
4 | 5.2 °C |  | 3.5 °C | 2.7 °C | 1.8 °C | CNc1ncc2cc(-c3ccc(-c4ncccc4F)cc3Cl)c(=O)n(C[C@H]3OC[C@H](N)CO3)c2n1 | Activity [7]: 70%; Activity [8]: 7%; Activity [9]: Toxic; inhibition [10]: Active; inhibition [11]: Active; inhibition [12]: Dose-Dependent Effect; Activity [13]: Non-Toxic; Activity [14]: 13%; inhibition [15]: Active
5 | 1.1 °C | 2.2 °C | 3.8 °C | 2.6 °C | 1.9 °C | CNc1ncc2cc(-c3ccccc3Cl)c(=O)n(CCCCN)c2n1 | Activity [17]: Toxic; Activity [7]: 58%; Activity [8]: 6%; Activity [9]: Toxic; inhibition [10]: Active; inhibition [11]: Active; inhibition [12]: Dose-Dependent Effect; inhibition [15]: Active
6 | 0.7 °C | 1.4 °C | 1.9 °C | 2 °C | 1.6 °C | CNc1ncc2cc(-c3cc(Cl)ccc3Cl)c(=O)n(CCCCN)c2n1 | 

Further lines, the compound ahead of its results:

Row | Compound | ΔTm [1] | ΔTm [2] | ΔTm [3] | ΔTm [4] | ΔTm [5] | further results
7 | CN[C@@H]1C[C@H]2O[C@@](C)([C@@H]1OC)n1c3ccccc3c3c4c(c5c6ccccc6n2c5c31)C(=O)NC4 | 6.7 °C |  |  |  |  | 
8 | CNc1ncc2cc(-c3cc(Br)ccc3Br)c(=O)n(CCCCN)c2n1 | 0.7 °C | 1.4 °C | 1.9 °C | 1.5 °C | 1.6 °C | 
9 | CCCS(=O)(=O)Nc1ccc(F)c(C(=O)c2c[nH]c3ncc(-c4ccc(Cl)cc4)cc23)c1F [VEMURAFENIB] |  |  |  |  |  | IC50 [16]: 4 nM
10 | CNc1ncc2cc(-c3cc(F)c(-c4cccc(C)n4)cc3F)c(=O)n(CCCCN)c2n1 | 3.6 °C | 5.2 °C | 9.7 °C | 7.6 °C | 2.8 °C | 
11 | CNc1ncc2cc(-c3cc(Cl)ccc3Br)c(=O)n(CCCCN)c2n1 | 0.6 °C | 1.4 °C | 2 °C | 1.8 °C | 1.5 °C | 
12 | CNc1ncc2cc(-c3cc(C(F)(F)F)ccc3Cl)c(=O)n(CCCCN)c2n1 | 0.2 °C | 0.8 °C | 0.2 °C | 0.4 °C | 0.9 °C | 
